# ChEMBL document CHEMBL5036325, “Novel Biphenyl Pyridines as Potent Small-Molecule Inhibitors Targeting the Programmed Cell Death-1/Programmed Cell Death-Ligand 1 Interaction” (J Med Chem, 2021)
# The source made the active and inactive calls. No cut-off for these calls is given here.
# What was measured:
# [1] = system: CT26; assay: Antitumour activity against mouse CT26 cells implanted in BALB/c mouse assessed as inhibition of tumour growth at 40 mg/kg, po measured for 14 days relative to control; format: functional; settings: 336 h, time 14 day, read-out: TGI
# [2] = system: MDA-MB-231; assay: Antitumor immunity against human MDA-MB-231 cells co-cultured with CD3/CD28/CD2 T cell activator stimulated human PMBC assessed as cell death measuring lactate dehydrogenase release at 500 nM measured for 12 hrs by PBMC killing assay relative to control; format: functional
# [3] = biological target: Programmed cell death protein 1/Programmed cell death 1 ligand 1 (Homo sapiens, UniProt Q9NZQ7); assay: Inhibition of PD-1/PD-L1 interaction (unknown origin) preincubated with PD-L1 for 15 mins followed by PD-1 addition measured after 90 mins by TR-FRET assay; format: protein-complex assay
# [4] = Half life in Sprague-Dawley rat at 25 mg/kg, po measured upto 24 hrs by LC-MS/MS analysis; format: ADME, organism-based; settings: in vivo
# [5] = system: CT26; assay: Antitumour activity against mouse CT26 cells implanted in BALB/c mouse assessed as increased infiltration of CD8+ cell in tumor tissue at 40 to 80 mg/kg, po administered twice a day by immunohistochemical analysis; format: functional, organism-based; settings: dose 40-80 mg/kg
# [6] = Apparent volume of distribution in Sprague-Dawley rat at 3 mg/kg, iv measured upto 24 hrs by LC-MS/MS analysis; format: ADME, organism-based; settings: in vivo, read-out: Vz
# [7] = system: MDA-MB-231; assay: Antitumor immunity against human MDA-MB-231 cells co-cultured with CD3/CD28/CD2 T cell activator stimulated human PMBC assessed as cell death measuring lactate dehydrogenase release at 375 nM measured for 12 hrs by PBMC killing assay relative to control; format: functional
# [8] = system: CT26; assay: Antitumor activity against mouse CT26 cells implanted in BALB/c mouse assessed as decrease in final tumor weight at 40 to 80 mg/kg/day, po measured once in 2 weeks relative to control; format: functional; design: scale not given: the % may be the effect or the level left; settings: dose 40-80 mg/kg/day
# [9] = system: MDA-MB-231; assay: Antitumor activity against human MDA-MB 231 cells assessed as cell viability at […] by LDH assay; format: functional, cell-based; settings: dose 1.5 µM
# [10] = system: CT26; assay: Antitumour activity against mouse CT26 cells implanted in BALB/c mouse assessed as inhibition of tumour cell growth at 40 to 80 mg/kg, po administered twice a day by Hematoxylin and Eosin staining based analysis; format: functional, organism-based; settings: dose 40-80 mg/kg
# [11] = system: CT26; assay: Antitumour activity against mouse CT26 cells implanted in BALB/c mouse assessed as decrease in nucleus to cytoplasm ratio at 40 to 80 mg/kg, po administered twice a day by Hematoxylin and Eosin staining based analysis; format: functional, organism-based; settings: dose 40-80 mg/kg
# [12] = system: MDA-MB-231; assay: Antitumor immunity against human MDA-MB-231 cells co-cultured with CD3/CD28/CD2 T cell activator stimulated human PMBC assessed as cell death measuring lactate dehydrogenase release measured for 12 hrs by PBMC killing assay; format: functional, cell-based; settings: MDA-MB-231, 12 h
# [13] = AUC (0 to t) in Sprague-Dawley rat at 3 mg/kg, iv measured upto 24 hrs by LC-MS/MS analysis; format: ADME, organism-based; design: route intravenous, dose 3 mg/kg, time <=24; settings: in vivo
# [14] = Cmax in Sprague-Dawley rat at 25 mg/kg, po measured upto 24 hrs by LC-MS/MS analysis; format: ADME, organism-based; design: route oral, dose 25 mg/kg, time <=24; settings: in vivo
# [15] = Oral bioavailability in Sprague-Dawley rat at 25 mg/kg measured upto 24 hrs by LC-MS/MS analysis; format: ADME, organism-based; settings: in vivo
# [16] = Toxicity in BALB/c mouse implanted with mouse CT26 cells assessed as body weight change at 40 to 80 mg/kg/day, po measured once in 2 weeks; format: organism-based; settings: in vivo, 336 h, dose 40-80 mg/kg/day
# [17] = Apparent volume of distribution in Sprague-Dawley rat at 25 mg/kg, po measured upto 24 hrs by LC-MS/MS analysis; format: ADME, organism-based; settings: in vivo
# [18] = Toxicity in BALB/c mouse implanted with mouse CT26 cells assessed as mortality at 40 to 80 mg/kg/day, po measured once in 2 weeks; format: organism-based; settings: in vivo, 336 h, dose 40-80 mg/kg/day
# [19] = system: CT26; assay: Antitumor activity against mouse CT26 cells implanted in BALB/c mouse assessed as tumor growth inhibition at 40 to 80 mg/kg/day, po measured once in 2 weeks relative to control; format: functional; settings: dose 40-80 mg/kg/day
# [20] = Cytotoxicity against human PBMC cells assessed as cell viability at […] by LDH assay; format: cell-based; settings: dose 1.5 µM
# [21] = system: CT26; assay: Antitumour activity against mouse CT26 cells implanted in BALB/c mouse assessed as induction of tumor shrinkage at 40 to 80 mg/kg, po administered twice a day by Hematoxylin and Eosin staining based analysis; format: functional, organism-based; settings: dose 40-80 mg/kg
# [22] = Tmax in Sprague-Dawley rat at 3 mg/kg, iv measured upto 24 hrs by LC-MS/MS analysis; format: ADME, organism-based; settings: in vivo
# [23] = AUC (0 to t) in Sprague-Dawley rat at 25 mg/kg, po measured upto 24 hrs by LC-MS/MS analysis; format: ADME, organism-based; design: route oral, dose 25 mg/kg, time <=24; settings: in vivo
# [24] = Clearance in Sprague-Dawley rat at 3 mg/kg, iv measured upto 24 hrs by LC-MS/MS analysis; format: ADME, organism-based; settings: in vivo
# [25] = Half life in Sprague-Dawley rat at 3 mg/kg, iv measured upto 24 hrs by LC-MS/MS analysis; format: ADME, organism-based; settings: in vivo
# [26] = Cmax in Sprague-Dawley rat at 3 mg/kg, iv measured upto 24 hrs by LC-MS/MS analysis; format: ADME, organism-based; design: route intravenous, dose 3 mg/kg, time <=24; settings: in vivo
# [27] = system: CT26; assay: Antitumour activity against mouse CT26 cells implanted in po dosed BALB/c mouse assessed as increase in CD8+ cells in dissociated tumor tissue administered once daily for 2 weeks by flow cytometry analysis; format: functional, organism-based
# [28] = Clearance in Sprague-Dawley rat at 25 mg/kg, po measured upto 24 hrs by LC-MS/MS analysis; format: ADME, organism-based; settings: in vivo
# [29] = system: MDA-MB-231; assay: Antitumor immunity against human MDA-MB-231 cells co-cultured with CD3/CD28/CD2 T cell activator stimulated human PMBC assessed as cell death measuring lactate dehydrogenase release at 48.9 to 1500 nM measured for 12 hrs by PBMC killing assay; format: functional, cell-based; settings: dose lower 48.9 nM, dose upper […]
# [30] = Tmax in Sprague-Dawley rat at 25 mg/kg, po measured upto 24 hrs by LC-MS/MS analysis; format: ADME, organism-based; settings: in vivo
# Chain of Programmed cell death protein 1/Programmed cell death 1 ligand 1 (Q15116 whole entry): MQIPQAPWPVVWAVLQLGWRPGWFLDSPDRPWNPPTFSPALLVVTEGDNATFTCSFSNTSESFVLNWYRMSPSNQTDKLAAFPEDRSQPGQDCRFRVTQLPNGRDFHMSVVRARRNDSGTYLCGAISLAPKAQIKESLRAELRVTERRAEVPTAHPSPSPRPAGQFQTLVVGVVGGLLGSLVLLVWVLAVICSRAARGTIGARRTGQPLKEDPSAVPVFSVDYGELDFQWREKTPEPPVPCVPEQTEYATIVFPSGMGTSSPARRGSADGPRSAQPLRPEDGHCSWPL
# Chain of Programmed cell death protein 1/Programmed cell death 1 ligand 1 (Q9NZQ7 whole entry): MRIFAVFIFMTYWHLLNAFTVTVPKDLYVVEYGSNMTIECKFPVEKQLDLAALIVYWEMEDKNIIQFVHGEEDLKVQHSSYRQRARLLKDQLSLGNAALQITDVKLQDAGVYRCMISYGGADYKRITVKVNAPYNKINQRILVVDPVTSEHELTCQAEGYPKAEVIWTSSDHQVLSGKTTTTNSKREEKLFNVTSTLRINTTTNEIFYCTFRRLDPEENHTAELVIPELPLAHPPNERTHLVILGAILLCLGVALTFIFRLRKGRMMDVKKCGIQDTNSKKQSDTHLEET
structure (smiles),measurement,setting,value
COc1nc(OCc2cccc(-c3ccccc3)c2C)ccc1CNCCNC(C)=O,inhibition in vivo at 40 mg/kg,[1],32%
same,Activity,[2],44%
Cc1c(-c2ccccc2)cccc1-c1ccc(CNCCO)cn1,IC50,[3],34.6 nM
CC(=O)NCCNCc1ccc(-c2cccc(-c3ccccc3)c2C)nc1,IC50,[3],52.8 nM
COC(=O)c1ccc(-c2cccc(-c3ccccc3)c2C)nc1OC,IC50,[3],326 nM
COc1nc(-c2cccc(-c3ccc4c(c3)OCCO4)c2C)ccc1CNCCO,IC50,[3],7.9 nM
COc1nc(-c2cccc(-c3ccccc3)c2C)ccc1CN[C@@H](CO)C(=O)O,IC50,[3],17 nM
COc1nc(-c2cccc(-c3ccc4c(c3)OCCO4)c2C)ccc1CNCCCO,IC50,[3],7.7 nM
COc1nc(-c2cccc(-c3ccccc3)c2C)ccc1CNCCN,IC50,[3],20.8 nM
COc1nc(-c2cccc(-c3ccccc3)c2C)ccc1CNCCCO,IC50,[3],7.4 nM
COc1nc(-c2cccc(-c3ccc4c(c3)OCCO4)c2C)ccc1CNCCN,IC50,[3],16.7 nM
COc1nc(-c2cccc(-c3ccc4c(c3)OCO4)c2C)ccc1CNCCO,IC50,[3],13.2 nM
COc1nc(-c2cccc(-c3ccccc3)c2C)ccc1CNC[C@@H]1CCC(=O)N1,IC50,[3],14.2 nM
COc1nc(-c2cccc(-c3ccccc3)c2C)ccc1CNCCO,inhibition in vivo at 40 mg/kg,[1],57%
same,half-life,[4],6.4 h
same,Activity,[5],Active
same,Vd,[6],78.6 L/kg
same,Activity,[7],53%
same,Activity,[8],60%
same,Activity,[9],inactive
same,Activity,[10],Active
same,Activity,[11],Active
same,EC50,[12],100 nM
same,AUC(0-t) at 24 h,[13],430 ng·h/mL
same,Cmax,[14],192 ng/mL
same,bioavailability,[15],22%
same,Activity,[16],Non-Toxic
same,Vz,[17],249.3 L/kg
same,Activity,[18],Non-Toxic
same,TGI,[19],67%
same,Activity,[20],Non-Toxic
same,Activity,[21],Active
same,Tmax,[22],1.8 min
same,AUC(0-t) at 24 h,[23],787 ng·h/mL
same,clearance,[24],192 mL/min/kg
same,half-life,[25],4.2 h
same,Cmax,[26],1230 ng/mL
same,Activity,[27],Dose-Dependent Effect
same,CL/F,[28],480 mL/min/kg
same,Activity,[29],Active
same,Tmax,[30],0.69 h
COc1nc(-c2cccc(-c3ccccc3)c2C)ccc1CN(C)CCO,IC50,[3],8.4 nM
COc1cccc(-c2cccc(-c3ccc(CNCCO)c(OC)n3)c2C)c1,IC50,[3],12.6 nM
COc1nc(-c2cccc(-c3ccccc3)c2C)ccc1C(=O)NCCO,IC50,[3],327 nM
COc1nc(-c2cccc(-c3ccc4c(c3)OCCO4)c2C)ccc1CNCCNC(C)=O,IC50,[3],14.1 nM
COc1nc(-c2cccc(-c3ccccc3)c2C)ccc1CN[C@H](C)CO,IC50,[3],5 nM
COc1nc(-c2cccc(-c3ccc4c(c3)OCCO4)c2C)ccc1CN[C@@H](CO)C(=O)O,IC50,[3],10.4 nM
COc1nc(-c2cccc(-c3ccccc3)c2C)ccc1CN1CC[C@@H](O)C1,IC50,[3],8.5 nM
Cc1c(-c2ccccc2)cccc1-c1cc(CNCCO)ccn1,IC50,[3],131 nM
COc1nc(-c2cccc(-c3ccccc3)c2C)ccc1CNCCNC(C)=O,IC50,[3],14.4 nM
